Data as given in PubChem BioAssay (NCI).
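Dose response: 5 concentrations. Exposure: 48 h. Format: 96-well plates. Endpoint: linear interpolation; highest concentration if not reached. Here, GI50 denotes the concentration required for 50% inhibition of growth. TGI denotes the concentration required for complete inhibition of growth.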

Experiments:
Test in all cases: DTP human tumour cell line panel, 48 h
CAKI-1 renal = tested on: CAKI-1 renal
K-562 leukemia = tested on: K-562 leukemia
KM12 colon = tested on: KM12 colon
NCI-H226 lung = tested on: NCI-H226 lung
OVCAR-4 ovarian = tested on: OVCAR-4 ovarian
RXF 393 renal = tested on: RXF 393 renal
SK-OV-3 ovarian = tested on: SK-OV-3 ovarian
TK-10 renal = tested on: TK-10 renal
UACC-62 melanoma = tested on: UACC-62 melanoma
PC-3 prostate = tested on: PC-3 prostate

Structure (SMILES) | TGI (CAKI-1 renal) | TGI (K-562 leukemia) | TGI (KM12 colon) | TGI (NCI-H226 lung) | TGI (OVCAR-4 ovarian) | TGI (RXF 393 renal) | TGI (SK-OV-3 ovarian) | TGI (TK-10 renal) | TGI (UACC-62 melanoma) | GI50 (CAKI-1 renal) | GI50 (K-562 leukemia) | GI50 (KM12 colon) | GI50 (NCI-H226 lung) | GI50 (OVCAR-4 ovarian) | GI50 (PC-3 prostate) | TGI (PC-3 prostate) | GI50 (SK-OV-3 ovarian) | GI50 (TK-10 renal) | GI50 (UACC-62 melanoma) | GI50 (RXF 393 renal)
O=C(/C=C/c1ccc(O)cc1)c1cc(Cl)ccc1O | > 100 µM | 71.3 µM | > 100 µM | > 100 µM | > 100 µM | 88.9 µM | > 100 µM | > 100 µM | > 100 µM |  |  |  |  |  |  |  |  |  |  | 
ClCCCCOC1CCCCO1 (stereo not given) | > 100 µM |  | > 100 µM | > 100 µM | > 100 µM | > 100 µM | > 100 µM | > 100 µM | > 100 µM |  |  |  |  |  |  |  |  |  |  | 
Nc1nc2ncn(CC(O)COC(=O)c3ccccc3)c2c(=O)[nH]1 (stereo not given) | > 100 µM | > 100 µM | > 100 µM | > 100 µM | > 100 µM | > 100 µM | > 100 µM | > 100 µM | > 100 µM |  |  |  |  |  |  |  |  |  |  | 
COC(CC1(OC)OC(=O)C=C1N)OC (stereo not given) |  | > 100 µM | > 100 µM | > 100 µM | > 100 µM |  | > 100 µM | > 100 µM | > 100 µM |  |  |  |  |  |  |  |  |  |  | 
N=C1C(c2nc3ccccc3s2)=C(O)CN1c1cc(Cl)cc(Cl)c1 | > 100 µM | > 100 µM | > 100 µM | > 100 µM | > 100 µM |  | > 100 µM | > 100 µM | > 100 µM | > 100 µM | > 100 µM | > 100 µM | > 100 µM | 37.4 µM | > 100 µM | > 100 µM | > 100 µM | > 100 µM | > 100 µM | 
N#CC1C(=O)NC(=O)C1=O (stereo not given) | > 100 µM | > 100 µM | > 100 µM | > 100 µM | > 100 µM | > 100 µM | > 100 µM | > 100 µM | > 100 µM |  |  |  |  |  |  |  |  |  |  | 
COc1cc2c(cc1O)C1CC(CC3CCCCN31)OC(=O)/C=C\c1ccc(O)c-2c1 (stereo not given) | 66.4 µM | > 100 µM | 34.8 µM | > 100 µM | > 100 µM |  | 96.7 µM | 95.8 µM | 45.2 µM |  |  |  |  |  |  | 99.5 µM |  |  |  | 
COc1ccc2c(c1)N(CCO)C1=C(C(=O)OC1)C2c1ccc(OC)c(OC)c1 (stereo not given) | > 100 µM | > 100 µM | 14.7 µM | 9.55 µM | > 100 µM |  | > 100 µM | > 100 µM | > 100 µM | 3.05 µM | 1.26 µM | 1.43 µM | 2.29 µM | 4.77 µM | 3.03 µM | > 100 µM | 4.13 µM | 4.19 µM | 2.13 µM | 
Cc1cc(N)cc(C)c1-c1c(Br)cc(N)cc1Br | 31.2 µM |  | 17.3 µM | > 100 µM | > 100 µM | 6.91 µM | 12.2 µM | 37.7 µM | 24 µM | 3.07 µM |  | 3.75 µM | 9.43 µM | 5.93 µM | 4.17 µM | 69.1 µM | 3.62 µM | 5.67 µM | 3.52 µM | 2.57 µM
Cc1cc2c(cc1Cl)SC(C(=O)c1ccc(Cl)c(Cl)c1)NS2(=O)=O (stereo not given) | > 100 µM | > 100 µM | 80.9 µM | > 100 µM | 71.5 µM |  | 91.4 µM | > 100 µM | 42.9 µM | 97.4 µM | 35.6 µM | 30.9 µM | 49.9 µM | 27.1 µM | 32.5 µM | > 100 µM | 33.7 µM | 84.7 µM | 22 µM | 
CCCCC(C(=O)CCC(=O)Nc1ccc(Cl)cc1)C(=O)C(C)C (stereo not given) | > 100 µM | > 100 µM | > 100 µM | > 100 µM | > 100 µM | > 100 µM | > 100 µM | > 100 µM | > 100 µM |  |  |  |  |  |  |  |  |  |  | 
CCCCCCCCCCCC(=O)OC(COC(N)=O)COc1ccc(Cl)cc1 (stereo not given) | 44.3 µM | 35.1 µM | 61.1 µM | 46.1 µM | 40.9 µM | 43.9 µM | > 100 µM | > 100 µM | 41.3 µM |  |  |  |  |  |  |  |  |  |  | 
COC(=O)C1=C(\O)C[C@@]2(C)CC[C@@H](C(=O)OC)C2C/C=C\1C(=O)OC (stereo not given in full) | > 100 µM |  | > 100 µM | > 100 µM | > 100 µM | > 100 µM | > 100 µM | > 100 µM | > 100 µM |  |  |  |  |  |  |  |  |  |  | 
N#Cc1cn(-c2c3ccccc3nc3ccccc23)c(=O)[nH]c1=O | 45.6 µM | 23.3 µM | 79.5 µM |  | 20.4 µM |  | 33.1 µM | > 100 µM | 38.8 µM |  |  |  |  |  |  |  |  |  |  | 
CN1CCc2cc3c4cc2C1Cc1ccc(cc1)Oc1cc(ccc1O)CC1c2c(cc(O)c(c2O4)O3)CCN1C (stereo not given) | 34.8 µM | 4.54 µM | 4.43 µM | 4.97 µM | 4.37 µM | 13.2 µM | 9 µM | 31 µM | 3.76 µM |  |  |  |  |  |  |  |  |  |  | 
N#Cc1c(N)c(C#N)c2c(c1-c1ccc(Cl)cc1)COc1ccc(F)cc1-2 | > 50 µM | > 50 µM | > 50 µM |  | > 50 µM | > 50 µM | > 50 µM | 29.9 µM | > 50 µM | 21 µM | > 50 µM | 12.3 µM |  | > 50 µM | > 50 µM | > 50 µM | > 50 µM | 7.63 µM | 46.4 µM | > 50 µM
C#Cc1ccc(-n2c(/C=C/c3ccc4ccccc4c3)nc3ncccc3c2=O)cc1 | > 100 µM | > 100 µM | > 100 µM |  | > 100 µM | 5.47 µM | > 100 µM | > 100 µM | > 100 µM | 2.98 µM | 2.43 µM | 2.95 µM |  | 1.95 µM | 2.35 µM | > 100 µM | 7.55 µM | 4.04 µM | 2.49 µM | 1.79 µM
COc1cc(/C=C/c2cc(O)c(C/C=C(\C)CC/C=C(\C)CO)c(O)c2)cc2c1O[C@]1(C)CC[C@@H](O)C(C)(C)[C@H]1C2 | > 42.9 µM |  | > 100 µM | > 100 µM | > 100 µM | > 100 µM | > 100 µM | > 93.8 µM |  | 9.36 µM |  |  |  | 32.5 µM |  | > 100 µM | > 100 µM |  |  | 
O=C(O)c1cn(C2CC2)c2cc(N3CCN(Cc4ccc5ccccc5c4O)CC3)c(F)cc2c1=O |  |  |  | > 100 µM |  | 5.64 µM | > 100 µM |  | > 100 µM |  |  |  | 3.14 µM |  |  |  | 3.68 µM |  | 5.06 µM | 2.29 µM
